Experimental data from PMC11211671, “Phage‐displayed heptapeptide sequence conjugation significantly improves the specific targeting ability of antimicrobial peptides against Staphylococcus aureus” (mLife, 2024).
Peptide text beside a SMILES is read from it.

Legend:
[1] = test system: BALB/c mice; assay: Biosafety evaluation, tail vein injection; assay type: in vivo, mouse; conditions: tail vein 5 mg/kg once daily, 7 days, n = 6
Protocol: Twelve male BALB/c mice (weighing approximately 20 g) were randomly divided into two groups (control and peptide‐treated groups). Mice in the peptide‐treated group were injected intravenously into the tail vein with 5 mg/kg peptide solution once daily. In the control group, mice were injected once daily with saline via the tail vein. The experiment was continued for 7 days, and changes in body weight were recorded. Mice were anesthetized with ether and euthanized 12 h after the seventh tail vein injection. Blood was collected from the orbital vein and centrifuged, and the serum was analyzed biochemically. The livers and kidneys of mice were collected and weighed. The organs were then fixed in a 4% paraformaldehyde solution and analyzed by H&E staining.

[2] = test system: S. aureus 6538; assay type: cell-based, Staphylococcus aureus
Protocol: (§1) MICs were determined to evaluate the antimicrobial activities of the peptides. The bacteria were inoculated into Mueller‐Hinton broth (MHB) medium in advance and placed in a shaker at 37°C until the logarithmic growth phase. The optical density value at OD600 of the bacterial suspension was adjusted to 0.4, and then diluted 1000 times with sterile MHB medium. Subsequently, the peptides with concentrations of 0.25–128 μM were prepared using bovine serum albumin (BSA) solution (0.2% BSA and 0.01% acetic acid) as the solvent on a 96‐well plate. Different concentrations of peptides and bacterial liquids were mixed in equal volumes. MHB medium containing bacteria was used as a positive control. MHB medium without bacteria was used as a negative control. Then, the mixture of peptides and bacteria was cultured in an incubator at 37°C for 18–24 h. The optical density of each well was measured at 492 nm using a microplate reader. The lowest drug concentration corresponding to a culture mixture with an optical density of less than 0.1 is the MIC of the peptide. The assay was repeated three times in duplicate.

[3] = test system: S. aureus 1882; assay type: cell-based, Staphylococcus aureus
Protocol: as §1

[4] = test system: E. coli 25922; assay type: cell-based, Escherichia coli
Protocol: as §1

[5] = test system: E. coli K99; assay type: cell-based, Escherichia coli; conditions: microbroth dilution, MHB, 37°C, 18–24 h, OD492 < 0.1; repeated three times in duplicate
Protocol: as §1

[6] = test system: E. coli K88; assay type: cell-based, Escherichia coli; conditions: microbroth dilution, MHB, 37°C, 18–24 h, OD492 < 0.1; repeated three times in duplicate
Protocol: as §1

[7] = test system: S. epidermidis 12228; assay type: cell-based, Staphylococcus epidermidis
Protocol: as §1

[8] = test system: BALB/c mice; assay: Biosafety evaluation, intraperitoneal injection; assay type: in vivo, mouse; conditions: i.p. 15 and 30 mg/kg once daily, 7 days, n = 6, except 15 mg/kg group for urea
Protocol: Eighteen male BALB/c mice (weighing approximately 30 g) were randomly divided into three groups (control, low‐dose, and high‐dose groups). Mice in the low‐ and high‐dose groups were intraperitoneally injected with 15 and 30 mg/kg polypeptide solutions, respectively, once daily. Mice in the control group were injected intraperitoneally with 150 µl of saline once daily. The experiment lasted for 7 days, and the changes in the body weight of the mice were recorded. After the seventh intraperitoneal injection for another 12 h, the mice were anesthetized with ether and euthanized. Blood was collected from the orbital vein, and serum was analyzed by biochemical analysis after centrifugation. The livers and kidneys of mice were collected and weighed. Afterward, the organs were fixed in a 4% paraformaldehyde solution and stained with H&E for analysis.

[9] = test system: red blood cells; assay type: cell-based, pig
Protocol: A series of parameters such as charge number, hydrophobicity, sequence length, and amphipathicity can affect the hemolytic activity of peptides against red blood cells. The minimal hemolytic concentration (MHC) refers to the minimum concentration that causes hemolysis of 10 % of red blood cells, and is often used to evaluate the hemolytic activity of the peptides. Except for SFK3, the percentage of hemolysis at 128 μM was below 5% for all peptides. Hemolysis of the erythrocytes occurred after incubation with Triton X‐100, with complete fragmentation of the erythrocytes and a bright red color of the reaction system (Figure 2B,C and Table S5).
The hemolytic activity of the peptide was calculated by measuring the level of […] released from mammalian red blood cell lysis induced by the peptide, [44]. Fresh porcine blood was collected from the jugular vein and washed with PBS three times, and red blood cells were collected. A red blood cell suspension of 10% (v/v) concentration was prepared in 10 mM PBS (pH = 7.4). After mixing with different concentrations of peptides in equal volume, they were incubated at 37°C for 2 h. Red blood cells treated with PBS and 0.1% Triton X‐100 were used as negative and positive controls, respectively. The assay was repeated three times. After the sample was centrifuged, the supernatant was transferred to a new 96‐well plate, and the optical density at 570 nm was measured using a microplate reader. Hemolysis was calculated as follows: Hemolytic activity(%)=ODtest sample−ODnegative control/ODpositive control−ODnegative control×100%

[10] = test system: S. aureus ATCC 6538; assay type: cell-based, Staphylococcus aureus
Protocol: as §1
The assay was performed to analyze the salt ion stability of SFK2 by measuring changes in MIC values in different physiological salt concentrations, [46].

[11] = test system: P. aeruginosa 15442; assay type: cell-based, Pseudomonas aeruginosa
Protocol: as §1

[12] = test system: P. aeruginosa 27853; assay type: cell-based, Pseudomonas aeruginosa
Protocol: as §1

CC[C@H](C)[C@H](NC(=O)[C@H](CCCNC(=N)N)NC(=O)[C@H](CO)NC(=O)[C@H](CC(C)C)NC(=O)[C@H](Cc1ccccc1)NC(=O)[C@H](Cc1ccccc1)NC(=O)[C@H](Cc1ccccc1)NC(=O)CNC(=O)CNC(=O)CNC(=O)[C@H](CO)NC(=O)[C@H](C)NC(=O)[C@H](CCCNC(=N)N)NC(=O)[C@@H](NC(=O)[C@H](Cc1c[nH]c2ccccc12)NC(=O)[C@H](Cc1ccc(O)cc1)NC(=O)[C@@H](N)CO)C(C)C)C(=O)N[C@@H](Cc1ccccc1)C(=O)N[C@@H](CCCCN)C(=O)N[C@@H](CCCCN)C(N)=O [SFK2] (H-SYWVRASGGGFFFLSRIFKK-NH2)
>64 µM: MIC E. coli 25922 [4] | MIC E. coli K99 [5] | MIC E. coli K88 [6] | MIC S. epidermidis 12228 [7] | MIC P. aeruginosa 15442 [11] | MIC P. aeruginosa 27853 [12]
negligible toxic side effects: Toxic side effects after tail vein injection [1]
no significant differences: Relative organ indices and liver- and kidney function-related indices (Crea, urea, AST, ALT, TBIL, ALP) [8]
2 µM: MIC S. aureus 6538 [2] | MIC S. aureus 1882 [3] | MIC of SFK2 against S. aureus ATCC 6538, Control [10] | MIC of SFK2 against S. aureus ATCC 6538, ZnCl2 [10]
4 µM: MIC of SFK2 against S. aureus ATCC 6538, FeCl3 [10] | MIC of SFK2 against S. aureus ATCC 6538, KCl [10] | MIC of SFK2 against S. aureus ATCC 6538, MgCl2 [10] | MIC of SFK2 against S. aureus ATCC 6538, NH4Cl [10] | MIC of SFK2 against S. aureus ATCC 6538, NaCl [10]
>128 μM: MHC [9]
